The target of data set [1] is T1, Vasopressin V1a receptor (Homo sapiens, UniProt P37288). Put plainly: Displacement of [3H]-arginine-vasopressin from human V1A receptor expressed in human 1321N1 cell membranes incubated for 60 mins by radioligand binding assay. Set-up: species or system Membrane.
Target sequence in this assay (P37288 whole entry): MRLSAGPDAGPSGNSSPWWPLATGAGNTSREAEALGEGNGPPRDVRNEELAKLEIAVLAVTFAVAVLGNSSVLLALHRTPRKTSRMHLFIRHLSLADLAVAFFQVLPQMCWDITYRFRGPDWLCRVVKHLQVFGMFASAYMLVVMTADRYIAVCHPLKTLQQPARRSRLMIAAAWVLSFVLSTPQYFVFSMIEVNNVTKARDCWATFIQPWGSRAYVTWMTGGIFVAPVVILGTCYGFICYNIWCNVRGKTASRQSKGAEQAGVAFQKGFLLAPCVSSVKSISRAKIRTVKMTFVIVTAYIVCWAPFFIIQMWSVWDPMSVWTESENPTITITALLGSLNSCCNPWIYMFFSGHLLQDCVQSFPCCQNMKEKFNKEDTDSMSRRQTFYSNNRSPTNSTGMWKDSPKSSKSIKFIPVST
In data set [2] the target is T2, Vasopressin V2 receptor (Homo sapiens, UniProt P30518). In words: Displacement of [3H]-labelled arginine-vasopressin from human V2 receptor expressed in human 1321N1 cell membranes at 1 uM incubated for 60 mins by radioligand binding assay. The note with it: Membrane. For orientation: In a radioligand displacement assay an active substance lowers the binding of a labelled ligand.
T2 sequence (P30518 whole entry): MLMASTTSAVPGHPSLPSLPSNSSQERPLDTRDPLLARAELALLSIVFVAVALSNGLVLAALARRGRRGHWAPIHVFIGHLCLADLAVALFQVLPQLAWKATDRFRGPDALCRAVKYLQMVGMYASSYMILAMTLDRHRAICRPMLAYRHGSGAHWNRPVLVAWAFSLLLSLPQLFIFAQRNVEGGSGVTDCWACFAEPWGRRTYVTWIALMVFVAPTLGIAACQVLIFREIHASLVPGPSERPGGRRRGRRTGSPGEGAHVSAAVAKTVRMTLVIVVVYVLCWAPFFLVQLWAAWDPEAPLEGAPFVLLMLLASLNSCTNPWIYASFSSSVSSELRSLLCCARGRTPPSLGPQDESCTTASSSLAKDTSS

The target of data set [3] is T2, Vasopressin V2 receptor. Put plainly: Displacement of [3H]-arginine-vasopressin from human V2 receptor expressed in human 1321N1 cell membranes incubated for 60 mins by radioligand binding assay. Set-up: species or system Membrane.
Data set [4] relates to 1321N1. Put plainly: Selectivity ratio of Ki for human V2 receptor expressed in human 1321N1 cell membranes to Ki for human V1A receptor expressed in human 1321N1 cell membranes. The class given is cell-based.
Data set [5] is described as follows: Intrinsic clearance in human liver microsomes in presence of reduced NADPH. A general note: Liver microsomes are vesicles of endoplasmic reticulum, rich in cytochrome P450 enzymes.
A short description of data set [6]: Intrinsic clearance in rat liver microsomes in presence of reduced NADPH.
Data set [7] in a line: Intrinsic clearance in mouse liver microsomes in presence of reduced NADPH.
Data set [8] can be described thus: Apparent permeability across apical to basolateral side in mouse Caco-2 cells. The note with it: human. On the technique in general: Passage across Caco-2 layers is used to estimate intestinal permeability.
A short description of data set [9]: Permeability directional ratio in mouse Caco-2 cells. As to conditions: human.
Data set [10] can be described thus: physchem. As to conditions: PBS, pH 7.4.
Description: Kinetic solubility of compound in PBS at pH 7.4 incubated for 2 hrs by HPLC-MS analysis
For data set [11], the target named is T1, Vasopressin V1a receptor. In words: Inhibition of human V1A receptor expressed in human 1321N1 cells assessed as calcium mobilization by fluorescent plate reader. The class given is functional, cell-based.
Target sequence in this assay (P37288 whole entry): as the sequence (P37288 whole entry) above
Data set [12] deals with T1, Vasopressin V1a receptor. In words: Displacement of [3H]-labelled arginine-vasopressin from human V1A receptor expressed in human 1321N1 cell membranes at 5 nM incubated for 60 mins by radioligand binding assay. As to conditions: Membrane.
Target sequence in this assay (P37288 whole entry, looked up): as the sequence (P37288 whole entry) above

Each structure is given as a SMILES string. Converted amounts (≈) assume the structure as drawn.

This note sets out measurements from ChEMBL document CHEMBL5042479, “Synthesis and Characterization of New V1A Antagonist Compounds: The Separation of Four Atropisomeric Stereoisomers” (J Med Chem, 2021).

As to `Cc1cccc2c1-n1c(nnc1[C@H]1CC[C@H](Oc3ccccn3)CC1)C[C@H](O)C2` (atropisomer aR) [listing 1 of 2 here], the affinity in data set [1], expressed as Ki, was 11 nM.
Consider `CN(C)CCn1cc(C(=O)N2CCC3(CC2)OCc2ccccc23)c2ccc(Cl)cc21`, for which, in data set [2], the inhibition (in general, the relative decrease from the control value, in per cent) was -6%.
Consider `O[C@H]1Cc2cc(Cl)ccc2-n2c(nnc2[C@H]2CC[C@H](Oc3ccccn3)CC2)C1`, for which the Ki (as a rule, the dissociation constant of the complex between target and ligand, obtained from inhibition or displacement) in data set [3] was determined as 900 nM. Besides, in data set [4], the Selectivity ratio is 3000. Also, the values for the intrinsic metabolic clearance (microsomal CLint) in data set [5], in data set [6] and in data set [7] were 4.1 µL/min/mg, 56.2 µL/min/mg and 6.7 µL/min/mg, respectively. Besides, the Papp A→B (in general, the apparent permeability from the apical to the basolateral side of a cell layer) in data set [8] was 20.5 ×10⁻⁶ cm/s. Besides, the efflux ratio (in general, the permeability from basolateral to apical divided by that in the opposite direction, in the common usage) in data set [9] came out at 4.7. The kinetic solubility – broadly, the concentration staying in solution when a stock, usually in DMSO, is diluted into the medium – at 2 h in data set [10] amounted to 98.9 µM (≈ 40.6 µg/mL).
As for `Cc1ccc2c(c1)-n1c(nnc1[C@H]1CC[C@H](Oc3ccccn3)CC1)CC(O)C2` (stereo partly specified), the Ki in data set [1] amounted to 34 nM. In addition, in [11], the half-inhibitory concentration (IC50) (as a rule, the concentration needed to halve the response being measured) stood at 390 nM. The inhibition in data set [2] came out at 3%.
With `Cc1cccc2c1-n1c(nnc1[C@H]1CC[C@H](Oc3ccccn3)CC1)C[C@@H](O)C2` (atropisomer aR) [listing 1 of 2 here], in [1], the affinity, expressed as Ki, was 6.3 nM.
As to `OC1Cc2c(Cl)cccc2-n2c(nnc2[C@H]2CC[C@H](Oc3ccccn3)CC2)C1` (stereo partly specified), the inhibition constant Ki in data set [1] was 12 nM.
On to `Cc1cccc2c1-n1c(nnc1[C@H]1CC[C@H](Oc3ccccn3)CC1)C[C@@H](O)C2` (atropisomer aS) [listing 1 of 2 here], for which the inhibition in [2] came to 0%.
In the case of `OC1Cc2ccc(Cl)cc2-n2c(nnc2[C@H]2CC[C@H](Oc3ccccn3)CC2)C1` (stereo partly specified), the inhibition in data set [12] is 26%.
For `Clc1ccc2c(c1)CCCc1nnc([C@H]3CC[C@H](Oc4ccccn4)CC3)n1-2`, the values for the CLH in [5], in data set [6] and in data set [7] were 7 µL/min/mg, 124 µL/min/mg and 94 µL/min/mg, respectively.
For the compound `CN1Cc2cc(Cl)ccc2-n2c(nnc2C2CCN(c3ccccn3)CC2)C1`, the inhibition in data set [2] worked out at 13%.
On the same count and under the same terms, next, `Cc1cccc2c1-n1c(nnc1[C@H]1CC[C@H](Oc3ccccn3)CC1)C[C@H](O)C2` (atropisomer aS) [listing 1 of 2 here]: -5%.
With `Cc1cccc2c1-n1c(nnc1[C@H]1CC[C@H](Oc3ccccn3)CC1)C[C@H](O)C2` (atropisomer aS) [listing 2 of 2 here], affinity in data set [1] was put at a Ki of 146 nM. That is a sub-micromolar value.
For the compound `Cc1cccc2c1-n1c(nnc1[C@H]1CC[C@H](Oc3ccccn3)CC1)C[C@@H](O)C2` (atropisomer aS) [listing 2 of 2 here], the affinity in data set [1] corresponds to a Ki of 2640 nM.
On to `Cc1cccc2c1-n1c(nnc1[C@H]1CC[C@H](Oc3ccccn3)CC1)C[C@@H](O)C2` (atropisomer aR) [listing 2 of 2 here], for which, in data set [2], the inhibition was -6%.
As to `OC1Cc2cc(Cl)ccc2-n2c(nnc2[C@H]2CC[C@H](Oc3ccccn3)CC2)C1` (stereo partly specified), the Selectivity ratio in data set [4] was determined as 1570. Besides, the microsomal CLint – broadly, the rate of metabolic loss divided by the concentration – worked out at 0.4 µL/min/mg in [5], 38 µL/min/mg in data set [6] and 6.3 µL/min/mg in [7]. Moreover, the Papp A→B in data set [8] came to 20.3 ×10⁻⁶ cm/s. In addition, the efflux ratio in [9] was found to be 6.2. In addition, in data set [10], the solubility (kinetic) at 2 h came out at 97.5 µM (≈ 40.1 µg/mL).
The compound `O[C@@H]1Cc2cc(Cl)ccc2-n2c(nnc2[C@H]2CC[C@H](Oc3ccccn3)CC2)C1` had a Ki in data set [3] of 200 nM. Further, the Selectivity ratio in data set [4] was 667. Besides, the microsomal CLint stood at 3.2 µL/min/mg in [5], 16.6 µL/min/mg in data set [6] and 5.1 µL/min/mg in data set [7]. Further, in data set [8], the apparent permeability from apical to basolateral (Papp A→B) was 22.5 ×10⁻⁶ cm/s. The efflux ratio in [9] is 3.7. Moreover, the solubility (kinetic) at 2 h in data set [10] amounted to 95.1 µM (≈ 39.1 µg/mL).
`Cc1ccc2c(c1)CC(O)Cc1nnc([C@H]3CC[C@H](Oc4ccccn4)CC3)n1-2` (stereo partly specified): the figures for the Ki in [1] and in [3] were 0.4 nM and 1070 nM, respectively. In addition, the IC50 in data set [11] came to 1.9 nM.
Turning to `Cc1cccc2c1-n1c(nnc1[C@H]1CC[C@H](Oc3ccccn3)CC1)C[C@H](O)C2` (atropisomer aR) [listing 2 of 2 here], the inhibition in [2] was -3%.
As for `Cc1cccc2c1CC(O)Cc1nnc([C@H]3CC[C@H](Oc4ccccn4)CC3)n1-2` (stereo partly specified), in data set [1], the affinity, expressed as Ki, was 8.8 nM. The inhibition in data set [2] was -9%.
